# Test results from ChEMBL document CHEMBL5120806, “Synthesis and biological evaluation of glucagon-like peptide-1 analogs with the C-terminal helix 3 of albumin-binding domain 3” (Bioorg Med Chem, 2022).
# The source made the active and inactive calls. The calls are words filed in the database; no cut-off is given here. Where a SMILES comes first, the peptide text is derived from it. [ ]: non-standard residue; d: D form. Aun = NCCCCCCCCCCC(=O)O; AEEA = NCCOCCOCC(=O)O; Aib = CC(C)(N)C(=O)O; Aoc = NCCCCCCCC(=O)O
# Tests used:
# [1] = target: T1, Glucagon-like peptide 1 receptor (Homo sapiens, UniProt P43220); assay: Binding affinity to GLP-1 receptor (unknown origin) assessed as binding rate constant by surface plasmon resonance analysis; conditions: filed as activator
# [2] = target: T1, Glucagon-like peptide 1 receptor; assay: Binding affinity to GLP-1 receptor (unknown origin) assessed as dissociation rate constant by surface plasmon resonance analysis; conditions: filed as activator
# [3] = system: Mus musculus; assay: Antidiabetic activity in mouse assessed as decrease in blood glucose level at 30 nmol/kg, sc measured after 24 hrs; format: functional, organism-based
# [4] = system: Mus musculus; assay: Antidiabetic activity in mouse assessed as decrease in AUC (0 to 24hrs) glucose level at 30 nmol/kg, sc measured after 24 hrs; format: functional, organism-based
# [5] = target: Albumin (Homo sapiens, UniProt P02768); assay: Binding affinity to albumin (unknown origin) by HPLC analysis
# [6] = target: T1, Glucagon-like peptide 1 receptor; assay: Binding affinity to GLP-1 receptor (unknown origin) assessed as equlibrium constant by surface plasmon resonance analysis
# [7] = target: T1, Glucagon-like peptide 1 receptor; assay: Activation of GLP-1 receptor (unknown origin) expressed in CHO-K1 cells assessed as increase in cAMP accumulation by time-resolved fluorescence resonance energy transfer immunoassay; format: functional, cell-based
# [8] = target: T2, Glucagon-like peptide 1 receptor (Rattus norvegicus) (UniProt P32301); assay: Activation of GLP-1 receptor in rat INS-1 cells assessed as cAMP accumulation at 10 nmol/L time-resolved fluorescence resonance energy transfer immunoassay; format: functional, cell-based; conditions: INS1, filed as activator
# T2 sequence (whole entry): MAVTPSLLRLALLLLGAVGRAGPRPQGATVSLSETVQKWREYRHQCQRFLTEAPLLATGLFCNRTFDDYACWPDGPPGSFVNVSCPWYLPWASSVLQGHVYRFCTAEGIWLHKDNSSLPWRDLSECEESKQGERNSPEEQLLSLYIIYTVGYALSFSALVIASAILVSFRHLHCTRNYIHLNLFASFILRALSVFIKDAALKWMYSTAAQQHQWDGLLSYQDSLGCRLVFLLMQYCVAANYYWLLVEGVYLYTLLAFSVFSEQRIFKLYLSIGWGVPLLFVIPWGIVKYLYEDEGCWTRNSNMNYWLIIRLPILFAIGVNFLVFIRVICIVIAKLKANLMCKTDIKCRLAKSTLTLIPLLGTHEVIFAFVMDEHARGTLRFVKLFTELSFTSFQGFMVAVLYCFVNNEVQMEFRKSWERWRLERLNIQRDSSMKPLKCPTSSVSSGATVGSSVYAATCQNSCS
# [9] = system: Mus musculus; assay: Antidiabetic activity in mouse assessed as decrease in body weight at 30 nmol/kg, sc measured after 24 hrs; format: functional, organism-based
# T1 sequence (P43220 whole entry): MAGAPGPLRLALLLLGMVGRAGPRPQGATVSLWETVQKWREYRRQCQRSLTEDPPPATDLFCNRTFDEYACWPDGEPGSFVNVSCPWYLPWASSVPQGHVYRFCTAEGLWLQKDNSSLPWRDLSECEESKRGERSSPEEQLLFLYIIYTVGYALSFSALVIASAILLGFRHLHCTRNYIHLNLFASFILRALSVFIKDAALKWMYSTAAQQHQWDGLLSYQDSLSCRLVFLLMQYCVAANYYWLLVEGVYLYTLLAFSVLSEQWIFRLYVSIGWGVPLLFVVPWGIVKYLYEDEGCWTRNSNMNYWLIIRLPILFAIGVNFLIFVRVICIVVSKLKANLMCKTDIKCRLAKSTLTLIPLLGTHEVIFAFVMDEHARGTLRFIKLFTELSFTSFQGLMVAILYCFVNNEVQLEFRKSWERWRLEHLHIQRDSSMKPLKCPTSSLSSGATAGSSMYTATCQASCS
# Chain of Albumin (P02768 whole entry): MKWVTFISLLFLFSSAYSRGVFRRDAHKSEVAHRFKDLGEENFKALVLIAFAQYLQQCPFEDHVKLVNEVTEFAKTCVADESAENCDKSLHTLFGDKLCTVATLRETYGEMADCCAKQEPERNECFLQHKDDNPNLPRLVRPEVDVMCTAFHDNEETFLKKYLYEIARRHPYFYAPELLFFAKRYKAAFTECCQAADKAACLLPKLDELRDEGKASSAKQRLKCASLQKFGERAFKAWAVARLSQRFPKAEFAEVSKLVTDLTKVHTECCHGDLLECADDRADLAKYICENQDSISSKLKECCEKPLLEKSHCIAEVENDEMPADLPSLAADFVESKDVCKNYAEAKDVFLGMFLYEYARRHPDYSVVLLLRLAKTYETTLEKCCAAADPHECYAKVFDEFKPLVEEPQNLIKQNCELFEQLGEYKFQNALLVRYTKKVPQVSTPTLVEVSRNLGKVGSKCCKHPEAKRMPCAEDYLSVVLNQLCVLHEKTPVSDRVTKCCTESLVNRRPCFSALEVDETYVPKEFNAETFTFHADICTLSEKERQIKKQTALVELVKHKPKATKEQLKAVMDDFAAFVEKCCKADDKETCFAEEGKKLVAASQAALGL
Compound,Ka [1],Kdiss [2],Activity [5],Kd [6],EC50 [7],Activity [8],Activity [3],Activity [4],Activity [9]
SEMAGLUTIDE [listing 1 of 2 here],7.26 10^4/Ms,3.2 10^-2/s,,,,,Active,Active,
SEMAGLUTIDE [listing 2 of 2 here],,,> 99%,,,,,,
CC[C@H](C)[C@H](NC(=O)[C@H](Cc1ccccc1)NC(=O)[C@H](CCC(=O)O)NC(=O)[C@H](CCCCN)NC(=O)[C@H](C)NC(=O)[C@H](C)NC(=O)[C@H](CCC(N)=O)NC(=O)CNC(=O)[C@H](CCC(=O)O)NC(=O)[C@H](CC(C)C)NC(=O)[C@H](Cc1ccc(O)cc1)NC(=O)[C@H](CO)NC(=O)[C@H](CO)NC(=O)[C@@H](NC(=O)[C@H](CC(=O)O)NC(=O)[C@H](CO)NC(=O)[C@@H](NC(=O)[C@H](Cc1ccccc1)NC(=O)[C@@H](NC(=O)CNC(=O)[C@H](CCC(=O)O)NC(=O)C(C)(C)N)[C@@H](C)O)[C@@H](C)O)C(C)C)C(=O)N[C@@H](C)C(=O)N[C@@H](Cc1c[nH]c2ccccc12)C(=O)N[C@@H](CC(C)C)C(=O)N[C@H](C(=O)N[C@@H](CCCCN)C(=O)NCC(=O)NCC(=O)N[C@H](C(=O)N[C@@H](CCCCN)C(=O)N[C@@H](C)C(=O)N[C@@H](CC(C)C)C(=O)N[C@H](C(=O)N[C@@H](CC(=O)O)C(=O)N[C@@H](CCC(=O)O)C(=O)N[C@H](C(=O)N[C@@H](CC(C)C)C(=O)N[C@@H](C)C(=O)N[C@@H](C)C(N)=O)[C@@H](C)CC)[C@@H](C)CC)C(C)C)C(C)C (H-[Aib]EGTFTSDVSSYLEGQAAKEFIAWLVKGGVKALIDEILAA-NH2),2.99 10^3(1/Ms),1.12 10^-2/s,86.2%,3750 nM,0.0651 nM,Active,Active,Active,Active
H-[Aib]EGTFTSDVSSYLEGQAAKEFIAWLVKG[Aun]GVKALIDEILAA-NH2,7.53 10^3(1/Ms),1.1 10^-2/s,89.2%,1460 nM,0.209 nM,Active,Active,Active,Active
H-[Aib]EGTFTSDVSSYLEGQAAKEFIAWLVKG[AEEA]GVKALIDEILAA-NH2,1.95 10^4/Ms,1.94 10^-2/s,75.4%,994 nM,0.132 nM,,Active,,
H-[Aib]EGTFTSDVSSYLEGQAAKEFIAWLVKG[Aun][AEEA]GVKALIDEILAA-NH2,1.32 10^4/Ms,1.97 10^-2/s,76.4%,1490 nM,0.158 nM,,Active,Active,Active

# Continued, in another order:
Ka [1],Kdiss [2],Activity [5],Kd [6],EC50 [7],Activity [8],Compound,Activity [3],Activity [4],Activity [9]
2.01 10^4/Ms,1.41 10^-2/s,77.4%,700 nM,0.204 nM,,H-[Aib]EGTFTSDVSSYLEGQAAKEFIAWLVKG[Aoc]GVKALIDEILAA-NH2,Active,Active,
3.57 10^4/Ms,3.25 10^-2/s,65.6%,912 nM,0.17 nM,,H-[Aib]EGTFTSDVSSYLEGQAAKEFIAWLVKG[AEEA][AEEA]GVKALIDEILAA-NH2,Active,Active,
3.11 10^4/Ms,1.65 10^-2/s,66.5%,532 nM,0.135 nM,,H-[Aib]EGTFTSDVSSYLEGQAAKEFIAWLVKG[Aoc][AEEA]GVKALIDEILAA-NH2,Active,Active,
